# Patent US20260306464A1, “LINAPRAZAN GLURATE FOR TREATING GASTROESOPHAGEAL REFLUX DISEASE (GERD)” (Cinclus Pharma Holding AB (publ), priority 2023, published 2026)
# What was measured:
# [1] = LEED study: endoscopic healing of erosive esophagitis / LA grade improvement after 4 weeks; assay type: in vivo, human
# Source text: The severity of esophagitis is typically indicated using the Los Angeles (LA) classification of reflux esophagitis, which is based on an endoscopic assessment of the patient. The LA grade scoring system divides reflux esophagitis into four categories (LA grade A to D) based on the extent of esophageal mucosal breaks. […] LA grade C esophagitis is defined as one or more mucosal breaks that are continuous between the tops of two mucosal folds, but which involves less than 75% of the esophageal circumference. The most severe form, LA grade D esophagitis, is defined as one or more mucosal breaks involving at least 75% of the esophageal circumference (Lundell et al., Gut 1999, vol. 45, p. 172-180).
# As used herein, the terms “improvement of the LA grade” and “LA grade improvement” refer to one or more steps from one LA grade to a lower LA grade (such as from grade D to grade C, B or A) or to being healed. In some embodiments, the improvement of the LA grade is 1 step. In some embodiments, the improvement of the LA grade is 2 steps. In some embodiments, the improvement of the LA grade is 3 steps. In some embodiments, the improvement of the LA grade is 4 steps.
# The study included patients with erosive esophagitis (eGERD). Patients were divided into two cohorts, one with patients having moderate to severe eGERD (LA grade C/D) and one with patients having milder eGERD (LA grade A/B) with a history of only partial response to PPI-treatment. The primary endpoint of the study was to support dose selection of linaprazan glurate for the phase III program in eGERD, through central assessment of healing of erosive esophagitis after four weeks of treatment. The sample size, i.e., the number of patients needed, for measuring dose related efficacy was based on the patient cohort with moderate to severe eGERD. After initial endoscopy and other screening procedures, 248 patients were randomized equally into one of five treatment groups, receiving either four weeks treatment with linaprazan glurate in four dose levels, or four weeks lansoprazole in the approved standard eGERD healing dose. Thereafter, an endoscopic evaluation of healing was performed, where healing was defined as no presence of esophageal erosions, i.e., no erosive damage to the esophageal mucosa. After the endoscopic evaluation, all patient groups received lansoprazole for four weeks in a maintenance phase. A retrospective central review of the endoscopy findings was performed, and 162 patients were available for evaluation of the primary endpoint. All enrolled 248 patients were included in the safety analysis.
# The study was a randomized, double-blind, active comparator-controlled study with a parallel group design including four arms with linaprazan glurate and one arm with lansoprazole. Pharmacokinetic (PK) blood sampling pre-dose, close before the first and the second dose administration was performed at Day 7, Day 14 and Day 28 visits days in all patients. 248 patients with erosive esophagitis due to GERD LA grade C or D and patients with erosive esophagitis due to GERD LA grade A or B with at least partial symptom response but still endoscopically unhealed after 8 weeks history of standard treatment healing course with PPI, were randomized.
# Randomization to one of the treatments with linaprazan glurate 25 mg, 50 mg, 75 mg, 100 mg twice daily (BID), or lansoprazole 30 mg once daily (QD) was based on a 1:1:1:1:1 scheme. One site could not enroll more than about 20% of the overall number of patients (48 patients per site).
# The duration of each patient's participation in the study, including screening, blind treatment period and open-label treatment period, was approximately 60 days. The patients were randomized for 4 weeks (28 days, −2/+5 days) of double-blind treatment and were provided with IMP for 35 days (including one additional blister pack dispensed at Visit 2/Day 0) to allow for treatment up to the visit window. […]
# [2] = LEED study: safety and tolerability (adverse events); details: for COVID-19 (%) / COVID-19 events / Constipation (%) / Constipation events / Headache (%) / Headache events / Nausea (%) / Nausea events: TEAE
# [3] = LA grade C/D, LG 100 mg BID, 4 weeks
smiles,measurement,setting,value
"Cc1cccc(C)c1CNc1cc(C(=O)NCCOC(=O)CCCC(=O)O)cn2c(C)c(C)nc12 [linaprazan glurate, 5-{2-[({8-[(2,6-dimethylbenzyl)amino]-2,3-dimethylimidazo[1,2-a]pyridine-6-yl}carbonyl)-amino]ethoxy}-5-oxopentanoic acid]",healing rate vs lansoprazole,[1]; 4-week treatment vs 30 mg/day lansoprazole,significantly higher healing rates
same,dose response in the healing rates,"[1]; 4 weeks, LG 25-100 mg BID",clear dose response
same,healing rate of eGERD,"[1]; 25, 50, 75 or 100 mg twice daily for 4 weeks",high healing rates
same,highest four-week healing rate in a linaprazan glurate dosing group,"[1]; LA grade A/B, 4 weeks, BID",91%
same,"mean healing rate, all patients treated with linaprazan glurate","[1]; LA grade A/B/C/D, 4 weeks, all LG doses, FIG. 8",80%
same,highest mean LA grade improvement in a linaprazan glurate dosing group,"[1]; LA grade C/D, 4 weeks, BID, FIG. 5",3.1
same,LA grade improvement of all LG-treated patients vs lansoprazole,"[1]; LA grade C/D, 4 weeks, all LG doses",higher than lansoprazole
same,highest four-week healing rate in a linaprazan glurate dosing group,"[1]; LA grade C/D, 4 weeks, FIG. 6 (all LG dose group), FIG. 7 (LG 75 mg dose group)",89%
same,patients whose 4-week LA grade was A,[1]; [3],6 out of 7
same,response in the 100 mg dose group,[1]; [3],lower than expected
same,healing rate of all LG-treated patients vs lansoprazole,"[1]; LA grade C/D, post-hoc analysis, Fisher's exact test",significantly higher than lansoprazole
same,"mean harmonic p-value, healing rate LG vs lansoprazole","[1]; LA grade C/D, post-hoc, Fisher's exact test",0.0404
same,safety data vs lansoprazole,[2]; LG 25-100 mg BID,comparable to that of lansoprazole
same,tolerability,[2]; LG 25-100 mg BID,generally well tolerated
same,COVID-19 (%),[2]; LG 25 mg BID,2.0%
same,COVID-19 events,[2]; LG 25 mg BID,1 events
same,Constipation (%),[2]; LG 25 mg BID,3.9%
same,Constipation events,[2]; LG 25 mg BID,2 events
same,Headache (%),[2]; LG 25 mg BID,2.0%
same,Headache events,[2]; LG 25 mg BID,1 events
same,Nausea (%),[2]; LG 25 mg BID,2.0%
same,Nausea events,[2]; LG 25 mg BID,1 events
same,COVID-19 (%),[2]; LG 50 mg BID,4.2%
same,COVID-19 events,[2]; LG 50 mg BID,2 events
same,Constipation (%),[2]; LG 50 mg BID,2.1%
same,Constipation events,[2]; LG 50 mg BID,1 events
same,Headache (%),[2]; LG 50 mg BID,6.3%
same,Headache events,[2]; LG 50 mg BID,3 events
same,Nausea (%),[2]; LG 50 mg BID,0.0%
same,Nausea events,[2]; LG 50 mg BID,0 events
same,COVID-19 (%),[2]; LG 75 mg BID,1.9%
same,COVID-19 events,[2]; LG 75 mg BID,1 events
same,Constipation (%),[2]; LG 75 mg BID,3.8%
same,Constipation events,[2]; LG 75 mg BID,2 events
same,Headache (%),[2]; LG 75 mg BID,1.9%
same,Headache events,[2]; LG 75 mg BID,1 events
same,Nausea (%),[2]; LG 75 mg BID,0.0%
same,Nausea events,[2]; LG 75 mg BID,0 events
same,COVID-19 (%),[2]; LG 100 mg BID,8.5%
same,COVID-19 events,[2]; LG 100 mg BID,4 events
same,Constipation (%),[2]; LG 100 mg BID,0.0%
same,Constipation events,[2]; LG 100 mg BID,0 events
same,Headache (%),[2]; LG 100 mg BID,2.1%
same,Headache events,[2]; LG 100 mg BID,1 events
same,Nausea (%),[2]; LG 100 mg BID,0.0%
same,Nausea events,[2]; LG 100 mg BID,0 events
